From paper PMC3399817 (PLoS ONE, 2012)

Legend:
Test in all cases: KINOMEscan
Format in all cases: binding
MEK6 = biological target: T1, MEK6 (Homo sapiens, UniProt P52564); conditions: MEK6, 1 uM
T1 construct: purchased Ambit KINOMEscan (DiscoverX)
Procedure, shortened: (§1)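 Kinases were scored for inhibited substrate binding in the presence of 1 μM compound; this served as the first-pass selectivity screen.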

CSNK1E = biological target: T2, CSNK1E (Homo sapiens, UniProt P49674); conditions: 1 uM
T2 construct: purchased Ambit KINOMEscan (DiscoverX)
Procedure, shortened: as §1

IKK-beta = biological target: T3, IKK-beta (Homo sapiens, UniProt O14920); conditions: 1 uM
T3 construct: purchased Ambit KINOMEscan (DiscoverX)
Procedure, shortened: as §1

HPK1 = biological target: T4, HPK1 (Homo sapiens, UniProt Q92918); conditions: HPK1, 1 uM
T4 construct: purchased Ambit KINOMEscan (DiscoverX)
Procedure, shortened: as §1

MEK4 = biological target: T5, MEK4 (Homo sapiens, UniProt P45985); conditions: MEK4, 1 uM
T5 construct: purchased Ambit KINOMEscan (DiscoverX)
Procedure, shortened: as §1

TEC = biological target: T6, TEC (Homo sapiens, UniProt P42680); conditions: 1 uM
T6 construct: purchased Ambit KINOMEscan (DiscoverX)
Procedure, shortened: as §1

KIT(L576P) = biological target: T7, KIT(L576P) (Homo sapiens, UniProt P10721, L576P); conditions: 1 uM
T7 construct: purchased Ambit KINOMEscan (DiscoverX)
T7 sequence (P10721 26-976 L576P): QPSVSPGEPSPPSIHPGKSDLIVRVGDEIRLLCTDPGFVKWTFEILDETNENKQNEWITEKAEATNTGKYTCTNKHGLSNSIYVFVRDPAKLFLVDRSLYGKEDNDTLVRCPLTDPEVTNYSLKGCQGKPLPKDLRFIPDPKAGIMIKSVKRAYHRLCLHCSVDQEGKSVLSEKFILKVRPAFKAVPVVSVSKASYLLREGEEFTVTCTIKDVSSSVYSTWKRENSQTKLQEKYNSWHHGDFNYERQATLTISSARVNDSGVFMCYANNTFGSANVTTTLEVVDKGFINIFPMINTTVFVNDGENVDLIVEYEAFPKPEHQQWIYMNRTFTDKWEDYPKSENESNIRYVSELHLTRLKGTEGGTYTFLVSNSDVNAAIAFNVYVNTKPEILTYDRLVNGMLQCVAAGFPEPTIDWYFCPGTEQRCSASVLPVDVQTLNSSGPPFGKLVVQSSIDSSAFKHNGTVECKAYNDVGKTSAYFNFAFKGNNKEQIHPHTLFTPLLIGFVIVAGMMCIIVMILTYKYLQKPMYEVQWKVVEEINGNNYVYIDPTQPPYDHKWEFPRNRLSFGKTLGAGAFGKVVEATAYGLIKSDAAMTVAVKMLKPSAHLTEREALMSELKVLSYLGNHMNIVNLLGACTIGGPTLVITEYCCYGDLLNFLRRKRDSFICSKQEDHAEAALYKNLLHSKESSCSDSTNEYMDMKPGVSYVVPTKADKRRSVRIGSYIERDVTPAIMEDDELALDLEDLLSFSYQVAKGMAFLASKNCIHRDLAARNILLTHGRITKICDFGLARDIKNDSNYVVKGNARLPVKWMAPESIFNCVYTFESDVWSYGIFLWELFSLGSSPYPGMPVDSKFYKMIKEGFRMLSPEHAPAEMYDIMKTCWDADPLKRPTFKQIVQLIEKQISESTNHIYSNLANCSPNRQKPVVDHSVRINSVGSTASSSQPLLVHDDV
Procedure, shortened: as §1

HCK = biological target: T8, HCK (Homo sapiens, UniProt P08631); conditions: 1 uM
T8 construct: purchased Ambit KINOMEscan (DiscoverX)
Procedure, shortened: as §1

SNARK = biological target: T9, SNARK (Homo sapiens, UniProt Q9H093); conditions: 1 uM
T9 construct: purchased Ambit KINOMEscan (DiscoverX)
Procedure, shortened: as §1

p38-gamma = biological target: T10, p38-gamma (Homo sapiens, UniProt P53778); conditions: 1 uM
T10 construct: purchased Ambit KINOMEscan (DiscoverX)
Procedure, shortened: as §1

[1] = biological target: T11, ABL1(M351T)-phosphorylated (Homo sapiens, UniProt P00519, M351T); conditions: 1 uM
T11 construct: purchased Ambit KINOMEscan (DiscoverX)
Procedure, shortened: as §1

CDC2L1 = biological target: T12, CDC2L1 (Homo sapiens, UniProt P21127); conditions: CDC2L1, 1 uM
T12 construct: purchased Ambit KINOMEscan (DiscoverX)
Procedure, shortened: as §1

ERK3 = biological target: T13, ERK3 (Homo sapiens, UniProt Q16659); conditions: ERK3, 1 uM
T13 construct: purchased Ambit KINOMEscan (DiscoverX)
Procedure, shortened: as §1

GRK7 = biological target: T14, GRK7 (Homo sapiens, UniProt Q8WTQ7); conditions: GRK7, 1 uM
T14 construct: purchased Ambit KINOMEscan (DiscoverX)
T14 sequence (Q8WTQ7 whole entry): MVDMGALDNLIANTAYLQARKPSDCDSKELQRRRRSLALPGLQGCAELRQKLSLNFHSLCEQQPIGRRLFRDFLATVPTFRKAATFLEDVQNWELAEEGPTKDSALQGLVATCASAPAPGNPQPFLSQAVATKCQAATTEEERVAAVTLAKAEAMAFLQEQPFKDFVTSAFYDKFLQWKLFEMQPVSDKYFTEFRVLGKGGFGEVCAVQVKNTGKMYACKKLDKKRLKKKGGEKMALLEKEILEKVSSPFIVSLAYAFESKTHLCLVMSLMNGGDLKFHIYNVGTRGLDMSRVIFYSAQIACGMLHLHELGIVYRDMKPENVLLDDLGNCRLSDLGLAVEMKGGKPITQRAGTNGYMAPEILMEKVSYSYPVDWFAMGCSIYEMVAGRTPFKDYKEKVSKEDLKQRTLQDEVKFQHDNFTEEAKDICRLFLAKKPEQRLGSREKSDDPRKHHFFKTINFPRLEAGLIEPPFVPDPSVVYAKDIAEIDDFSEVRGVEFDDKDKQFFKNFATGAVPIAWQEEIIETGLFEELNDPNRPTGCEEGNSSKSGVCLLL
Procedure, shortened: as §1

TXK = biological target: T15, TXK (Homo sapiens, UniProt P42681); conditions: 1 uM
T15 construct: purchased Ambit KINOMEscan (DiscoverX)
T15 sequence (P42681 whole entry): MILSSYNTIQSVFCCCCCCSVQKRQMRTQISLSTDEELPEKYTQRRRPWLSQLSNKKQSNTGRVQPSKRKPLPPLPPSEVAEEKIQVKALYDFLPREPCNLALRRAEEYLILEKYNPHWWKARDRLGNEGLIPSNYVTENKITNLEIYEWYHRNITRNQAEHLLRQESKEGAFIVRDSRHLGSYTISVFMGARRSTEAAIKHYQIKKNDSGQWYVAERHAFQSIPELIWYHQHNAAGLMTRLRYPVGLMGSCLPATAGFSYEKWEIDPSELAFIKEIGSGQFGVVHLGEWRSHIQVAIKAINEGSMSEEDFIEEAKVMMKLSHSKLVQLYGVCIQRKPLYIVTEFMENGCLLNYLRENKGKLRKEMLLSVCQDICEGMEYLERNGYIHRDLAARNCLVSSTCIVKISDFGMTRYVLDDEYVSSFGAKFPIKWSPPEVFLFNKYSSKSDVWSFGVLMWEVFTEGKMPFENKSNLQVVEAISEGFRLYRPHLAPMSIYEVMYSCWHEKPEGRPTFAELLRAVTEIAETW
Procedure, shortened: as §1

STK35 = biological target: T16, STK35 (Homo sapiens, UniProt Q8TDR2); conditions: STK35, 1 uM
T16 construct: purchased Ambit KINOMEscan (DiscoverX)
Procedure, shortened: as §1

FLT3(N841I) = biological target: T17, FLT3(N841I) (Homo sapiens, UniProt P36888, N841I); conditions: 1 uM
T17 construct: purchased Ambit KINOMEscan (DiscoverX)
Procedure, shortened: as §1

EPHB2 = biological target: T18, EPHB2 (Homo sapiens, UniProt P29323); conditions: EPHB2, 1 uM
T18 construct: purchased Ambit KINOMEscan (DiscoverX)
Procedure, shortened: as §1

GAK = biological target: T19, GAK (Homo sapiens, UniProt O14976); conditions: 1 uM
T19 construct: purchased Ambit KINOMEscan (DiscoverX)
Procedure, shortened: as §1

FLT1 = biological target: T20, FLT1 (Homo sapiens, UniProt P17948); conditions: FLT1, 1 uM
T20 construct: purchased Ambit KINOMEscan (DiscoverX)
Procedure, shortened: as §1

ACVR1B = biological target: T21, ACVR1B (Homo sapiens, UniProt P36896); conditions: 1 uM
T21 construct: purchased Ambit KINOMEscan (DiscoverX)
T21 sequence (P36896 24-505): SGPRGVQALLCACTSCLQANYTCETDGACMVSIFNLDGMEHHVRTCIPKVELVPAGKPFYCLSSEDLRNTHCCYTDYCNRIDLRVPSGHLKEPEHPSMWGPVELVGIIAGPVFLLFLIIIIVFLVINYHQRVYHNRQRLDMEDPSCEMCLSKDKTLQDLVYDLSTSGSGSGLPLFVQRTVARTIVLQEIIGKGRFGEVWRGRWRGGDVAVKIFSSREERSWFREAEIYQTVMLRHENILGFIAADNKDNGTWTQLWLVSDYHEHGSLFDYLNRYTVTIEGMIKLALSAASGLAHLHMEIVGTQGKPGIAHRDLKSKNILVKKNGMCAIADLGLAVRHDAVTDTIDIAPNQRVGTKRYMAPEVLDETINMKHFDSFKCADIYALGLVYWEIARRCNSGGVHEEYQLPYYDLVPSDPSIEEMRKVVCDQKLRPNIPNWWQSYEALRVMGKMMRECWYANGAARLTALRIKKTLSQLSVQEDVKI
Procedure, shortened: as §1

LATS2 = biological target: T22, LATS2 (Homo sapiens, UniProt Q9NRM7); conditions: LATS2, 1 uM
T22 construct: purchased Ambit KINOMEscan (DiscoverX)
Procedure, shortened: as §1

EPHB4 = biological target: T23, EPHB4 (Homo sapiens, UniProt P54760); conditions: EPHB4, 1 uM
T23 construct: purchased Ambit KINOMEscan (DiscoverX)
T23 sequence (P54760 16-987): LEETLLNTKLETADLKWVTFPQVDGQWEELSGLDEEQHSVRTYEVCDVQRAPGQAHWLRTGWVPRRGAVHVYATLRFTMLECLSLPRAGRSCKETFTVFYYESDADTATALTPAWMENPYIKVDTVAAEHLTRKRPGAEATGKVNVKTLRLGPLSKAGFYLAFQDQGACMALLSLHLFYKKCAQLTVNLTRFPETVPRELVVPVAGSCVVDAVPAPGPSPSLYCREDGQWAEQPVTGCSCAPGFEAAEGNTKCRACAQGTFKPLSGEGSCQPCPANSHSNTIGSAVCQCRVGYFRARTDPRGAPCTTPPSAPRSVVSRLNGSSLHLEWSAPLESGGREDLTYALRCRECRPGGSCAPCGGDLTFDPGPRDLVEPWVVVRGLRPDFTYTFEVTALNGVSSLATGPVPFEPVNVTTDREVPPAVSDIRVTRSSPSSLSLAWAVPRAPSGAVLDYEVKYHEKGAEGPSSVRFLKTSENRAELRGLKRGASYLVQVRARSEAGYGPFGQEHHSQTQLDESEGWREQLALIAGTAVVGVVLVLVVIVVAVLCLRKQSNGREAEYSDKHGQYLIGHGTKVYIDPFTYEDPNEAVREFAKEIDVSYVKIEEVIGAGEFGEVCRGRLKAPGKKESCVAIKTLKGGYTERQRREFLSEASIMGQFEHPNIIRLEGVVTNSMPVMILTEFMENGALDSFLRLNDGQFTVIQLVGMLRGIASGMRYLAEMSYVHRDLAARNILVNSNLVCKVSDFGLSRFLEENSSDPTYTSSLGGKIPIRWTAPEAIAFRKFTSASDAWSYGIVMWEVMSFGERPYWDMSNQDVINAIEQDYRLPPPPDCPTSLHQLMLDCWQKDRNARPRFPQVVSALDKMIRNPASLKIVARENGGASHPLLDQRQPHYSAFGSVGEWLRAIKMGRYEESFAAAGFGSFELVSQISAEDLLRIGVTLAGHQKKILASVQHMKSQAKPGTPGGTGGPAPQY
Procedure, shortened: as §1

MYLK2 = biological target: T24, MYLK2 (Homo sapiens, UniProt Q9H1R3); conditions: MYLK2, 1 uM
T24 construct: purchased Ambit KINOMEscan (DiscoverX)
Procedure, shortened: as §1

CTK = biological target: T25, CTK (Homo sapiens, UniProt P42679); conditions: 1 uM
T25 construct: purchased Ambit KINOMEscan (DiscoverX)
Procedure, shortened: as §1

PRKCE = biological target: T26, PRKCE (Homo sapiens, UniProt Q02156); conditions: 1 uM
T26 construct: purchased Ambit KINOMEscan (DiscoverX)
Procedure, shortened: as §1

PAK1 = biological target: T27, PAK1 (Homo sapiens, UniProt Q13153); conditions: PAK1, 1 uM
T27 construct: purchased Ambit KINOMEscan (DiscoverX)
Procedure, shortened: as §1

EGFR(G719C) = biological target: T28, EGFR(G719C) (Homo sapiens, UniProt P00533, G719C); conditions: 1 uM
T28 construct: purchased Ambit KINOMEscan (DiscoverX)
Procedure, shortened: as §1

DAPK2 = biological target: T29, DAPK2 (Homo sapiens, UniProt Q9UIK4); conditions: DAPK2, 1 uM
T29 construct: purchased Ambit KINOMEscan (DiscoverX)
Procedure, shortened: as §1

EPHA2 = biological target: T30, EPHA2 (Homo sapiens, UniProt P29317); conditions: EPHA2, 1 uM
T30 construct: purchased Ambit KINOMEscan (DiscoverX)
Procedure, shortened: as §1

PFTK1 = biological target: T31, PFTK1 (Homo sapiens, UniProt O94921); conditions: PFTK1, 1 uM
T31 construct: purchased Ambit KINOMEscan (DiscoverX)
Procedure, shortened: as §1

MRCKA = biological target: T32, MRCKA (Homo sapiens, UniProt Q5VT25); conditions: 1 uM
T32 construct: purchased Ambit KINOMEscan (DiscoverX)
Procedure, shortened: as §1

LYN = biological target: T33, LYN (Homo sapiens, UniProt P07948); conditions: 1 uM
T33 construct: purchased Ambit KINOMEscan (DiscoverX)
Procedure, shortened: as §1

PIK3CA = biological target: T34, PIK3CA (Homo sapiens, UniProt P42336); conditions: 1 uM
T34 construct: purchased Ambit KINOMEscan (DiscoverX)
Procedure, shortened: as §1

CSF1R = biological target: T35, CSF1R (Homo sapiens, UniProt P07333); conditions: 1 uM
T35 construct: purchased Ambit KINOMEscan (DiscoverX)
T35 sequence (P07333 20-972): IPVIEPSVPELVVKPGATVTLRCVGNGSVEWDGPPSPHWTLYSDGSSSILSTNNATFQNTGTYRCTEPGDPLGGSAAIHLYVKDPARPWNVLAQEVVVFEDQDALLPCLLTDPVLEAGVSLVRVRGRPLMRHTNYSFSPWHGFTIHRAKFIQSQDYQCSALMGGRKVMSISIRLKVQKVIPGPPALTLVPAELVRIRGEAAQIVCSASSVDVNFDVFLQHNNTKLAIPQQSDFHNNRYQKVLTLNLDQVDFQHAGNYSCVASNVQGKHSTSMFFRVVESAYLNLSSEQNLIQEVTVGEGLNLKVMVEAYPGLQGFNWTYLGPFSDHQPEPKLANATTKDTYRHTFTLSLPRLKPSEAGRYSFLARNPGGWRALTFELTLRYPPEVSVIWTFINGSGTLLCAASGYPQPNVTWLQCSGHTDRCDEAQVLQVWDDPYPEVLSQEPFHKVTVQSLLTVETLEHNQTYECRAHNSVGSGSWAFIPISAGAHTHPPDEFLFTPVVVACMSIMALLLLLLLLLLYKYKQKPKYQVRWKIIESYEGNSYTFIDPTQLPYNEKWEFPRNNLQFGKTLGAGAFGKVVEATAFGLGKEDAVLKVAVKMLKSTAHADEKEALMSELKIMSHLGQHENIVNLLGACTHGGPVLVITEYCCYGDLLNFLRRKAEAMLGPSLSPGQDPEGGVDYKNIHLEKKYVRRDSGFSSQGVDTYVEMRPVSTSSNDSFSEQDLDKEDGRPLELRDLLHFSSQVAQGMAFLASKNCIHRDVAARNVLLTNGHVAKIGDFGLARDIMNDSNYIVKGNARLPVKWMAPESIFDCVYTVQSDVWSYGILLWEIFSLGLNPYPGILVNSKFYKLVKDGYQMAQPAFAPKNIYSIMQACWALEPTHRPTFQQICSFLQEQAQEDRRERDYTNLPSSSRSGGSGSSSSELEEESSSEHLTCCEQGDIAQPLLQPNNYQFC
Procedure, shortened: as §1

[2] = biological target: T36, RPS6KA1(Kin.Dom.2-C-terminal) (Homo sapiens, UniProt Q15418); conditions: 1 uM
T36 construct: RPS6KA1(Kin.Dom.2-C-terminal); purchased Ambit KINOMEscan (DiscoverX)
T36 sequence (Q15418 392-735 limits assumed): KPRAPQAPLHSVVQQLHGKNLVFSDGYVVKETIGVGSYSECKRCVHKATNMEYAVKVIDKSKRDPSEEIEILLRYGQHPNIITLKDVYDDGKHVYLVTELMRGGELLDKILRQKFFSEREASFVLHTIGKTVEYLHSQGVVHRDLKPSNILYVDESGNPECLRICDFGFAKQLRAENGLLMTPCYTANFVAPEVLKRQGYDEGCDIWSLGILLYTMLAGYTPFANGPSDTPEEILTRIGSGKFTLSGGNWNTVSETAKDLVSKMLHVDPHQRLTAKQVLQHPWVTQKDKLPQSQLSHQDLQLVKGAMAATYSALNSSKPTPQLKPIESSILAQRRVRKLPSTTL
Procedure, shortened: as §1

BRAF = biological target: T37, BRAF (Homo sapiens, UniProt P15056); conditions: 1 uM
T37 construct: purchased Ambit KINOMEscan (DiscoverX)
Procedure, shortened: as §1

MAP4K4 = biological target: T38, MAP4K4 (Homo sapiens, UniProt O95819); conditions: MAP4K4, 1 uM
T38 construct: purchased Ambit KINOMEscan (DiscoverX)
Procedure, shortened: as §1

[3] = biological target: T39, RPS6KA1(Kin.Dom.1-N-terminal) (Homo sapiens, UniProt Q15418); conditions: 1 uM
T39 construct: RPS6KA1(Kin.Dom.1-N-terminal); purchased Ambit KINOMEscan (DiscoverX)
Procedure, shortened: as §1

EGFR = biological target: T40, EGFR (Homo sapiens, UniProt P00533); conditions: 1 uM
T40 construct: purchased Ambit KINOMEscan (DiscoverX)
Procedure, shortened: as §1

## COc1ccc(-c2cc3nccn3c(Nc3ncccc3C(N)=O)n2)cc1OC.Cl.Cl [BAY61-3606, 2-[7-(3,4-dimethoxyphenyl)-imidazo [1,2-c]pyrimidin-5-ylamino] nicotinamide dihydrochloride, reference compound]
MEK6
  % binding compared to no inhibitor control: 40%
CSNK1E
  % binding compared to no inhibitor control: 94%
IKK-beta
  % binding compared to no inhibitor control: 37%
HPK1
  % binding compared to no inhibitor control: 43%
MEK4
  % binding compared to no inhibitor control: 45%
TEC
  % binding compared to no inhibitor control: 100%
KIT(L576P)
  % binding compared to no inhibitor control: 0.4%
HCK
  % binding compared to no inhibitor control: 88%
SNARK
  % binding compared to no inhibitor control: 32%
p38-gamma
  % binding compared to no inhibitor control: 47%
[1]
  % binding compared to no inhibitor control: 81%
CDC2L1
  % binding compared to no inhibitor control: 95%
ERK3
  % binding compared to no inhibitor control: 73%
GRK7
  % binding compared to no inhibitor control: 59%
TXK
  % binding compared to no inhibitor control: 95%
STK35
  % binding compared to no inhibitor control: 88%
FLT3(N841I)
  % binding compared to no inhibitor control: 1.5%
EPHB2
  % binding compared to no inhibitor control: 100%
GAK
  % binding compared to no inhibitor control: 30%
FLT1
  % binding compared to no inhibitor control: 100%
ACVR1B
  % binding compared to no inhibitor control: 100%
LATS2
  % binding compared to no inhibitor control: 45%
EPHB4
  % binding compared to no inhibitor control: 86%
MYLK2
  % binding compared to no inhibitor control: 86%
CTK
  % binding compared to no inhibitor control: 44%
PRKCE
  % binding compared to no inhibitor control: 30%
PAK1
  % binding compared to no inhibitor control: 94%
EGFR(G719C)
  % binding compared to no inhibitor control: 68%
DAPK2
  % binding compared to no inhibitor control: 66%
EPHA2
  % binding compared to no inhibitor control: 100%
PFTK1
  % binding compared to no inhibitor control: 100%
MRCKA
  % binding compared to no inhibitor control: 83%
LYN
  % binding compared to no inhibitor control: 100%
PIK3CA
  % binding compared to no inhibitor control: 92%
CSF1R
  % binding compared to no inhibitor control: 51%
[2]
  % binding compared to no inhibitor control: 50%
BRAF
  % binding compared to no inhibitor control: 90%
MAP4K4
  % binding compared to no inhibitor control: 94%
[3]
  % binding compared to no inhibitor control: 96%
EGFR
  % binding compared to no inhibitor control: 87%

## COc1ccccc1Nc1nc(-c2ccc(OC)c(OC)c2)cc2nccn12 [BAY derivative 6]
MEK6
  % binding compared to no inhibitor control: 97%
CSNK1E
  % binding compared to no inhibitor control: 100%
IKK-beta
  % binding compared to no inhibitor control: 89%
HPK1
  % binding compared to no inhibitor control: 100%
MEK4
  % binding compared to no inhibitor control: 100%
TEC
  % binding compared to no inhibitor control: 100%
KIT(L576P)
  % binding compared to no inhibitor control: 38%
HCK
  % binding compared to no inhibitor control: 83%
SNARK
  % binding compared to no inhibitor control: 89%
p38-gamma
  % binding compared to no inhibitor control: 56%
[1]
  % binding compared to no inhibitor control: 92%
CDC2L1
  % binding compared to no inhibitor control: 100%
ERK3
  % binding compared to no inhibitor control: 88%
GRK7
  % binding compared to no inhibitor control: 100%
TXK
  % binding compared to no inhibitor control: 78%
STK35
  % binding compared to no inhibitor control: 91%
FLT3(N841I)
  % binding compared to no inhibitor control: 53%
EPHB2
  % binding compared to no inhibitor control: 99%
GAK
  % binding compared to no inhibitor control: 43%
FLT1
  % binding compared to no inhibitor control: 100%
ACVR1B
  % binding compared to no inhibitor control: 100%
LATS2
  % binding compared to no inhibitor control: 88%
EPHB4
  % binding compared to no inhibitor control: 97%
MYLK2
  % binding compared to no inhibitor control: 89%
CTK
  % binding compared to no inhibitor control: 98%
PRKCE
  % binding compared to no inhibitor control: 100%
PAK1
  % binding compared to no inhibitor control: 83%
EGFR(G719C)
  % binding compared to no inhibitor control: 100%
DAPK2
  % binding compared to no inhibitor control: 100%
EPHA2
  % binding compared to no inhibitor control: 89%
PFTK1
  % binding compared to no inhibitor control: 100%
MRCKA
  % binding compared to no inhibitor control: 79%
LYN
  % binding compared to no inhibitor control: 96%
PIK3CA
  % binding compared to no inhibitor control: 100%
CSF1R
  % binding compared to no inhibitor control: 42%
[2]
  % binding compared to no inhibitor control: 100%
BRAF
  % binding compared to no inhibitor control: 100%
MAP4K4
  % binding compared to no inhibitor control: 86%
[3]
  % binding compared to no inhibitor control: 82%
EGFR
  % binding compared to no inhibitor control: 100%
